What was measured:
[1] = test system: VCaP castration-resistant prostate cancer subcutaneous transplant tumor model; assay: In vivo pharmacodynamic study in a VCaP castration-resistant prostate cancer subcutaneous transplant tumor model; design: species or system SCID-Beige mice; details: 30mg/kg BID oral + prednisone 0.6mg/kg QD; for tumor inhibitory activity (in words): compared with ODM-208
Protocol: Animals: experimental male SCID-Beige mice, 6-8-weeks old or 18-22g, provided by Beijing Vital River Laboratory Animal Technology Co., Ltd.
Experiment procedures: all experimental animals were kept within specific-pathogen-free animal barrier facility, and allowed 3 days of adaptation before the experiment began. VCaP tumor cells were in vitro cultured as monolayer in DMEM complete medium (with 10% fetal bovine serum and 1% penicillin & streptomycin) at 37°C in air containing 5% CO2. Tumor cells were routinely passaged 2-3 times a week, and cells in exponential growth phase were collected and counted for tumor cell inoculation. 10x10^6 VCaP tumor cells were resuspended in 0.1ml PBS, thoroughly mixed with 0.1ml matrigel, and then inoculated subcutaneously on the right flank of each mouse to form a tumor. The tumor-bearing mice were allowed to develop to an average tumor volume of around 200mm^3 and underwent castration surgery. The tumor volumes of all mice were measured after one week of castration surgery. Suitable tumor-bearing mice were selected and assigned randomly into the following groups: blank control group, prednisone (0.6mg/kg, QD) group, abiraterone (33.73mg/kg, QD) + prednisone (0.6mg/kg, QD) group, ODM-208 (30mg/kg, BID) + prednisone (0.6mg/kg, QD) group, and the compound of the present disclosure (30mg/kg, BID) + prednisone (0.6mg/kg, QD) group. Animals in blank control group were orally administered with vehicles (0.5%MC+0.5%Tween80 and 0.5%CMCNa), and the animals in other groups were orally administered with corresponding compound. The experiment lasted for 32 days, and during the experiment, the animals in each group were measured for tumor volume and body weight twice a week.

[2] = LC-MS detection of concentrations of tested compounds in mouse plasma, tumors and adrenal glands; type: in vivo; details: compound + prednisone group vs ODM-208 + prednisone group of the VCaP model
Description: • Mouse tumors were homogenized using PBS in a 1:5 ratio (tumor weight (g): PBS volume (mL), w/v); • Mouse adrenal glands were homogenized using PBS in a 1:10 ratio (adrenal gland weight (g): PBS volume (mL), w/v); • Standard sample: testosterone (LGC, C17322500), progesterone (MCE, HY-N0437), adrenal ketone (MCE, HY-B1618), and standard solution of test substance.
Concentrations of tested compounds in mouse plasma, tumors and adrenal glands: The multiple reaction monitoring (MRM) method was used to detect the concentrations in mouse plasma, tumors and adrenal glands. Mass spectrum: AB Sciex Triple Quad 6500+, liquid chromatography: Shimadzu 40A, column: XBridge BEH C18 2.5 µm 2.1*50mm, ODM208 ion pair: 419.20/176.20, tested compounds ion pair: 429.20/200.20. Acetonitrile was used as precipitant, and propranolol diclofenac were used as the internal standard for sample pretreatment in plasma, tumor, and adrenal tissue. The linear ranges of the standard in plasma tissue was 0.5-1000 ng/mL, the linear ranges of the standard in tumor tissue was 3-6000 ng/mL, and the linear ranges of the standard in adrenal tissue was 5.5-11000 ng/mL.

Structure (SMILES)	weight loss (in words) [1]	animal weight loss ([1]; 32 days)	tumor inhibition rate TGI ([1]; castrated tumor-bearing mice, 32 days)	tumor inhibitory activity (in words) [1]	drug concentration in adrenal glands relative to ODM-208 [2]	drug concentration in plasma relative to ODM-208 [2]	drug concentration in tumors relative to ODM-208 [2]
COc1cc(CN2Cc3ccccc3C2)ccc1CCC1CCN(S(C)(=O)=O)CC1 [compound 53]	without significant weight loss	-2%	112%	significantly better than ODM-208	80 fold	3 fold	10 fold
Cn1c(CN2Cc3ccccc3C2)c(F)cc(CCC2CCN(S(C)(=O)=O)CC2)c1=O [compound 72]	without significant weight loss	–	–	significantly better than ODM-208	3.3 fold	1.6 fold	3.6 fold
